This is an account of results in patent US8975415B2, “Chromane compounds” (CoMentis, Inc., priority 2012, dated 2015).

Molecules are shown by their SMILES.

Data set [1] concerns Aβ42. Put plainly: Brain Aβ reduction in rats (Aβ42 ELISA). The format is in vivo, Sprague-Dawley rats. The settings on record: rat, oral. On the procedure:
Effects on brain Aβ reduction in rats were determined with reference to the method described in the WO2012/054510. […] Concretely, the test was conducted with the method as below.
Test compounds were prepared in a vehicle of 35% HPβCD in H2O. The test compound was formulated the same day as oral dosing. Doses (see [Table. 1]) were based on the free base equivalent. Sonication was used where required to facilitate the formulation.
Male Sprague-Dawley rats (150-300 grams) were obtained from Charles River Japan (Atsugi, Japan) and were given approximately 4 days of acclimation. Food and water was made available ad libitum throughout the study. Animals were visually inspected for health before being included into the study group, and were randomly assigned to the treatment and control groups to achieve similar group mean body weights. The dosing solution (dose volume 5 mL/kg) was administered directly into the stomach using a rodent gavage needle. Control animals received oral administration of equivalent volume of the vehicle.
At a time post-dose (e.g., 3 hours; see [Table. 1]), animals were euthanized with isoflurane. […] Plasma was separated using centrifugation at 15,000 rpm (20,400×g) for 5 minutes at 4° C. and subsequently stored at −80° C. After blood sampling, CSF (cerebrospinal fluid) was carefully withdrawn from the cisterna magna using a 29 gauge needle after a quick dissection to expose the atlantooccipital membrane. The CSF samples were centrifuged at 15,000 rpm (20,400×g) for 5 minutes to confirm free of blood contamination and stored at −80° C. Immediately after decapitation, the hippocampus were isolated on ice, and quickly frozen in liquid nitrogen and stored at −80° C.
Fragments of the hippocampus were weighed while frozen. A 10-fold volume (w:v) of TBS (Tris-buffered saline) supplemented with a Complete Mini protease inhibitor tablet (catalog number: 11 836 153 001, Roche Diagnostics, In, USA) was added. The hippocampus were homogenized using sonication on ice in microcentrifuge tube. Resulting homogenates were centrifuged at 100,000×g for 1 hour in a refrigerated centrifuge at 4° C. Supernatants were collected as soluble fraction.
Each concentration of Aβ42 was divided by the mean concentration of Aβ42 of vehicle-treated group, and these ratios were converted to percentages.

Data set [2] addresses hERG potassium channel (Homo sapiens (Human), UniProt Q12809). Nature of the data set: hERG inhibition, automated planar patch-clamp in hERG-expressing CHO cells. The settings on record: read-out: Test Example 5 hERG IC50; whole-cell patch clamp, room temperature.
Data set [3] concerns the target T1, BACE1 (Homo sapiens (Human), UniProt P56817). Put plainly: Measurement of BACE1 inhibition by time resolved fluorescence resonance energy transfer (TR-FRET). The format is biochemical. The settings on record: Eu-CEVNLDAEFK-QSY 7 substrate, read-out: Test Example 2 IC50.
Target sequence in this assay (P56817 75-416): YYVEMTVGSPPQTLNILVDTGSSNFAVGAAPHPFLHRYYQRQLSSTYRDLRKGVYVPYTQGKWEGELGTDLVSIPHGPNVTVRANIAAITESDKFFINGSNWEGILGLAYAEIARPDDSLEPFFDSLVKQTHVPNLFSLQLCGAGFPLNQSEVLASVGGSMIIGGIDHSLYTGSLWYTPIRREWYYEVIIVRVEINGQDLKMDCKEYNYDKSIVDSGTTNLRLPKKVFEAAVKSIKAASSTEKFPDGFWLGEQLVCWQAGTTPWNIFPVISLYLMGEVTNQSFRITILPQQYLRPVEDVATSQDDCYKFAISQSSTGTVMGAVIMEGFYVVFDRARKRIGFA
Protocol: If the sample contains BACE1 activity, the Eu chelate and the quencher will be separated as the substrate is cleaved. The Eu-signal increases and it can be measured by time-resolved fluorometry, EnVision™, 30 minutes after the substrate (final concentration 300 nM) was added.
Data set [4] has as its target T1, BACE1. Nature of the data set: Measurement of Aβ production inhibition in cell (SK-N-BE(2) neuroblastoma cells, Aβ40 ELISA). The settings on record: Test Example 3 IC50, Aβ40 production, SK-N-BE(2) cells, 6 hours. (In an ELISA, binding on a coated surface is turned into a signal by an enzyme label.)
Target sequence in this assay (P56817 46-501): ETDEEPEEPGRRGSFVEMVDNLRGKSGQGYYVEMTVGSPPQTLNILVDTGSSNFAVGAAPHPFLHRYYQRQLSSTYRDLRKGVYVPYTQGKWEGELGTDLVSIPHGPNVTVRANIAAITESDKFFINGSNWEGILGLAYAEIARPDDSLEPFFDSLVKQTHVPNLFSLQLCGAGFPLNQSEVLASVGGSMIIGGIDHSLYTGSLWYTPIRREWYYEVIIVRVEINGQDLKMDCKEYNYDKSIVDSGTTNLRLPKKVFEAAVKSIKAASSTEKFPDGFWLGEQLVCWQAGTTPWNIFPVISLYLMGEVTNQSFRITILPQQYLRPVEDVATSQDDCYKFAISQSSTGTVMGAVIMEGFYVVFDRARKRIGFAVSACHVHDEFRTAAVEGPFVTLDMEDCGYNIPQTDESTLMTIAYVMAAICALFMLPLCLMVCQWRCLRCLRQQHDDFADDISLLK
Protocol: The potency of compounds against BACE1 activity was determined in a cellular assay of Aβ production. […] Test compounds were dissolved in dimethyl sulfoxide and diluted with dimethyl sulfoxide and put into RPMI1640/5% FBS/penicillin-streptomycin media (final dimethyl sulfoxide concentration is 0.5%). […] CellTiter-Glo Substrate was dissolved into CellTiter-Glo Buffer and added to the plates in 95 μL/well. After shaking the plates for 2 minutes, the whole sample was transferred into a white 96-well plate and luminescence was measured for ATP quantification as the cell viability. Aβ concentration measured by ELISA was normalized by the viability of the corresponding cells.
Data set [5] deals with T1, BACE1. Put plainly: Measurement of BACE1 inhibition by fluorescence resonance energy transfer (FRET), MCA substrate. As to conditions: FRET.
Target sequence in this assay (P56817 75-416): as the sequence (P56817 75-416) above

hERG potassium channel, sequence (Q12809 whole entry): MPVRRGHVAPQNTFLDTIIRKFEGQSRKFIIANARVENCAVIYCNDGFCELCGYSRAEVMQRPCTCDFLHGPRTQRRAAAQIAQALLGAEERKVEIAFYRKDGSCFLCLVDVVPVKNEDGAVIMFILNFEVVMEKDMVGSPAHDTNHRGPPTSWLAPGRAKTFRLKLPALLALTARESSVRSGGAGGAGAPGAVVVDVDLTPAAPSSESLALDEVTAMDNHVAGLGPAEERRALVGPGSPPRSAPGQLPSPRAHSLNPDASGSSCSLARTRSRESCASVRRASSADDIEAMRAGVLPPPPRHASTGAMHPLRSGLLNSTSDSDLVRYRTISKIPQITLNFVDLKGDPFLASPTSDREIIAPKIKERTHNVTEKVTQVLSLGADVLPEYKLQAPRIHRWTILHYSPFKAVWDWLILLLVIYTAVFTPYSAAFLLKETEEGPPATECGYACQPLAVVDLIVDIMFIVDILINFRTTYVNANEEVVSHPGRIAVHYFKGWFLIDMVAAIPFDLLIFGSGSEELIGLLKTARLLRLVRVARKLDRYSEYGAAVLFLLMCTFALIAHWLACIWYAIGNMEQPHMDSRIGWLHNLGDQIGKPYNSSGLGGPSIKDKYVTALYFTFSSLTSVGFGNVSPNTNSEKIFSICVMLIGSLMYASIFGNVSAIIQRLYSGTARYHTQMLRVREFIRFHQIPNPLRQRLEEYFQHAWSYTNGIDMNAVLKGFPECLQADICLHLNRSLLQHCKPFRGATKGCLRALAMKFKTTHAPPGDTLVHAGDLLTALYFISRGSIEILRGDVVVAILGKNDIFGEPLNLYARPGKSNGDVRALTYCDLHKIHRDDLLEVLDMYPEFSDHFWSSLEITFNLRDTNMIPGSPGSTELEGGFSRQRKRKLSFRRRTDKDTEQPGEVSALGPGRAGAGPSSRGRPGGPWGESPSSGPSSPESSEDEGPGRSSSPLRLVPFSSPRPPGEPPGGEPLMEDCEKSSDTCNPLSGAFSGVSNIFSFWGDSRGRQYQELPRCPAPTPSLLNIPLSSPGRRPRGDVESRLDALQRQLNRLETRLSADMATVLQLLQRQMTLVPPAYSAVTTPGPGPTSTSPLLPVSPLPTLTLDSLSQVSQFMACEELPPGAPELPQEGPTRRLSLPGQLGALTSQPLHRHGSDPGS

For the compound `COc1cnc(C(=O)Nc2ccc3c(c2)[C@@]2(COC(N)=N2)C2(CC2)C(C)(C)O3)cn1` [Example 223, N-[(4′R)-2″-amino-2′,2′-dimethyldispiro[cyclopropane-1,3′-chromene-4′,4″-[1,3]oxazol]-6′-yl]-5-methoxypyrazine-2-carboxamide], the “Test Example 4 Aβ42 reduction (%)” value is listed as 19% in data set [1] (1 mg/kg, 3 hours) and 34% in data set [1] (3 mg/kg, 3 hours).
Consider `CC1(C)Oc2ccc(NC(=O)c3ccc(Cl)cn3)cc2[C@@]2(COC(N)=N2)C12COC2` (hydrate or solvate) [Example 218, N-[(4S)-2-amino-2′,2′-dimethyldispiro[1,3-oxazole-4,4′-chromene-3′,3″-oxetan]-6′-yl]-5-chloropyridine-2-carboxamide], for which the melting point – broadly, the temperature, or range, at which the solid turns liquid – stood at 165 °C.
Consider `CC1(C)Oc2ccc(NC(=O)c3ccc(Cl)cn3)cc2[C@@]2(COC(N)=N2)C12COC2` [Example 218, N-[(4S)-2-amino-2′,2′-dimethyldispiro[1,3-oxazole-4,4′-chromene-3′,3″-oxetan]-6′-yl]-5-chloropyridine-2-carboxamide], for which the “Test Example 4 Aβ42 reduction (%)” value in data set [1] (3 mg/kg, 2.5 hours) is on record as 24%; in data set [1] (10 mg/kg, 2.5 hours), 31%.
In the case of `COc1cnc(C(=O)Nc2ccc3c(c2)[C@@]2(COC(N)=N2)C2(COC2)C(C)(C)O3)cn1` [Example 220], the “Test Example 4 Aβ42 reduction (%)” value is given as 21% in data set [1] (3 mg/kg, 1.5 hours) and 27% in data set [1] (10 mg/kg, 1.5 hours). Moreover, the 50% inhibitory concentration (IC50) (in general, the concentration at which inhibition is half-maximal) in data set [2] was over 10000 nM.
For the compound `CC1(C)Oc2ccc(-c3cc(Cl)cnc3F)cc2C2(COC(N)=N2)C12COC2` (stereo not drawn) [RP 154], the half-inhibitory concentration (IC50) is 313 nM in data set [3], over 1000 nM in data set [2] and 32 nM in data set [4].
`CC1(C)Oc2ccc(NC(=O)c3cnc(C(F)F)cn3)cc2[C@@]2(COC(N)=N2)C12CC2.Cl` gave a melting point of 254 °C.
Turning to `Cc1cn2ccc(-c3ccc4c(c3)C3(COC(N)=N3)C3(COC3)C3(CCC3)O4)cc2n1` (stereo not drawn) [RP 66], the concentration for half-maximal inhibition (IC50) is 135000 nM in data set [3] and over 10000 nM in data set [2].
Consider `COc1cnc(C(=O)Nc2ccc3c(c2)[C@@]2(COC(N)=N2)C2(CC2)C(C)(C)O3)cn1` [Example 230, N-[(4′R)-2″-amino-2′,2′-dimethyldispiro[cyclopropane-1,3′-chromene-4′,4″-[1,3]oxazol]-6′-yl]-5-methoxypyrazine-2-carboxamide], for which the melting point turned out to be 191 °C.
With `CC1(C)Oc2ccc(NC(=O)c3ccc(Cl)cn3)cc2[C@@]2(COC(N)=N2)C12CC2` [Example 221], the “Test Example 4 Aβ42 reduction (%)” value turned out to be 24% in data set [1] (1 mg/kg, 3 hours) and 42% in data set [1] (3 mg/kg, 3 hours). Further, the 50% inhibitory concentration (IC50) in data set [4] came out at 0.16 nM; in data set [5] (read-out: Test Example 1 IC50, MCA-SEVNLDAEFK(DNP)-NH2 substrate, pH 4.4), 81.8 nM. Besides, the inhibition constant Ki (in general, a dissociation constant, usually derived from enzyme kinetics or from competition with a known ligand) in data set [5] (read-out: Test Example 1 BACE1 MCA Ki, MCA substrate) amounted to 37.8 nM.
Take `CC1(C)Oc2ccc(NC(=O)c3cnc(C(F)F)cn3)cc2[C@@]2(COC(N)=N2)C12CC2` [Example 224, N-[(4′R)-2″-amino-2′,2′-dimethyldispiro[cyclopropane-1,3′-chromene-4′,4″-[1,3]oxazol]-6′-yl]-5-(difluoromethyl)pyrazine-2-carboxamide]: the “Test Example 4 Aβ42 reduction (%)” value in data set [1] (1 mg/kg, 3 hours) is given as 21%; in data set [1] (3 mg/kg, 3 hours), 35%. For the same compound, the half-inhibitory concentration (IC50) in data set [2] turned out to be 15100 nM.
Turning to `NC1=NC2(CO1)c1cc(-c3cc(Cl)cnc3F)ccc1OCC21CC1` (stereo not drawn) [RP 104], the IC50 is 1130 nM in data set [3] and 3250 nM in data set [2].
For the compound `Cc1cn2cc(-c3ccc4c(c3)C3(COC(N)=N3)C3(COC3)C3(CCC3)O4)ccc2n1` (stereo not drawn) [RP 67], the half-inhibitory concentration (IC50) in data set [3] is 96500 nM; in data set [2], over 10000 nM.
